# Where two headings read alike, the source gives them in different places.
# How the values were obtained:
# USP14 [1] = target: T1, USP14 (Homo sapiens, UniProt P54578); experiment: SPR binding to recombinant USP14, NTA chip
# Description: (§1) A BIACORE T200 was used for characterization of the interaction between compounds and USP14, UCHL5 and 26S proteasome. The standard BIACORE protocols were used for NTA chip (Ni/His-tag immobilization) and CM7 chip for compound interaction studies with slight modification described below. The x6 his-tagged USP14 and UCHL5 proteins were coupled to a Series S NTA BIACORE sensor chip in the BIACORE T200 using the his-tags for adherence of the proteins to the surface and an amine coupling procedure for covalent attachment to the chip surface. NTA chip was cleaned using three 500 μM EDTA injections followed by an injection of 500 μM Ni^2+ and activation of the chip surface with EDC/NHS injection according to BIACORE standard methods. Each chip has four separate areas, which were handled separately during the immobilization procedure. Area 1 was used as blank reference surface, area 2–4 was coupled with investigated recombinant proteins or complexes. Proteins were diluted in running buffer (10 mM HEPES, 150 mM NaCl, 0,005% Tween 20) to typically 10 μg/ml before injection(1 mL) over the prepared surfaces. […] The immobilization procedure was followed by injections of compound concentration series of VLX1570. Concentration series were set up with ×3 and ×2 dilution series ending with the highest concentration 200 μM for the consecutive measurements of changes of refractive index. Compounds were kept in stock concentrations of 10 mM in DMSO and diluted in running buffer down to the test concentration. Rmax and KD were calculated using Langmuir binding isotherms as provided in the Biacore software.
# 26S proteasome = 26S proteasome (Homo sapiens, UniProt P54578+Q9Y5K5); experiment: SPR binding to 26S proteasomes, CM7 chip
# Chain of 26S proteasome (Q9Y5K5 whole entry): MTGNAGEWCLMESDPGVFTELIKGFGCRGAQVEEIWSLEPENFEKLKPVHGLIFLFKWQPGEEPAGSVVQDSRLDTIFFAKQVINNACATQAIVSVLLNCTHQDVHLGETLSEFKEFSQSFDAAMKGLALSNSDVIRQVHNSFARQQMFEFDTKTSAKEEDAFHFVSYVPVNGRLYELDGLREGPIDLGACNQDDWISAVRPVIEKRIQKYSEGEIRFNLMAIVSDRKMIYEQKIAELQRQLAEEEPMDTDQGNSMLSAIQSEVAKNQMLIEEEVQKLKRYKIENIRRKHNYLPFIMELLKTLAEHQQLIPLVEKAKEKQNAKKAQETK
# Chain of 26S proteasome (P54578 whole entry): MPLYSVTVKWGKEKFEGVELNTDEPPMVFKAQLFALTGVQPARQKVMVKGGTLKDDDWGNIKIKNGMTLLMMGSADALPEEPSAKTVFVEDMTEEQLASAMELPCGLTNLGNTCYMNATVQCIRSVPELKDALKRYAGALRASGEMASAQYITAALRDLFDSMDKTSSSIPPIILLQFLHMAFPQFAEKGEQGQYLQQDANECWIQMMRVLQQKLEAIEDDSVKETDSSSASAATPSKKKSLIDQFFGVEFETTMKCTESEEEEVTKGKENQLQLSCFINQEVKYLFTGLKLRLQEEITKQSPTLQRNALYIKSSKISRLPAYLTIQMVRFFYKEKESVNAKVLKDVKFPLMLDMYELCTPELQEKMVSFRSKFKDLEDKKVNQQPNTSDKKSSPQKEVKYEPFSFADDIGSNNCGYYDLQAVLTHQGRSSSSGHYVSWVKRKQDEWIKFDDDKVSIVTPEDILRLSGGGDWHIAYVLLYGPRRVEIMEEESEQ
# Chain of 26S proteasome (Q13200 whole entry partner): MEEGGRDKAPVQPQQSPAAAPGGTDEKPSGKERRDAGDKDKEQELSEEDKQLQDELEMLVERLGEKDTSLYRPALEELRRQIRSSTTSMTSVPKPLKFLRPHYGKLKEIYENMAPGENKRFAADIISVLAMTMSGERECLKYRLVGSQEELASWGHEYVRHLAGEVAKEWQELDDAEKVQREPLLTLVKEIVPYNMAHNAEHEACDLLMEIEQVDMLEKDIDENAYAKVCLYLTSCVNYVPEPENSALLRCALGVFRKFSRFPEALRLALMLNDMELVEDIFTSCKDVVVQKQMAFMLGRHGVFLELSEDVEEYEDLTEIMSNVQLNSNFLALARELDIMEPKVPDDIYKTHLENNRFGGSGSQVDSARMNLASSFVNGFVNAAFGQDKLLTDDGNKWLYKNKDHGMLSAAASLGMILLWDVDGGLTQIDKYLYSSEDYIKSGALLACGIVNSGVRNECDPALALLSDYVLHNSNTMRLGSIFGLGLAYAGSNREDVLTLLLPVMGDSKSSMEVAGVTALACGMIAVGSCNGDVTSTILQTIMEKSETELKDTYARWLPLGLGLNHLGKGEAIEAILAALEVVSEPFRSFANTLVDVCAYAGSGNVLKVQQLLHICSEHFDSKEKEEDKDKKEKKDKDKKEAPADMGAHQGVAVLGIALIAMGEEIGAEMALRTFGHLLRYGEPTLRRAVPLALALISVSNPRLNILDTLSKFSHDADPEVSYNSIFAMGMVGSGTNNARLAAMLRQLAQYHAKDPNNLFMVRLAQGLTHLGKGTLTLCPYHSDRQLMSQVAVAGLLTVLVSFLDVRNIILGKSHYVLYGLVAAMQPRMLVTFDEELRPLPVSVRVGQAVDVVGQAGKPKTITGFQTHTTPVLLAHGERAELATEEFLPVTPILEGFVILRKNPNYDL
# Description: as §1, with “Concentration series were set up with ×3 and ×2 dilution series ending with the highest concentration 200 μM for the consecutive measurements of changes of refractive index. Compounds were kept in stock concentrations of 10 mM in DMSO and diluted in running buffer down to the test concentration.” left out
# KMS-11 = experiment: MTT antiproliferative assay, KMS-11; format: cell-based; settings: Homo sapiens, 72 hours
# Procedure: (§2) Cell viability was monitored by the MTT (3-(4,5-dimethylthiazol-2-yl)-2,5-diphenyltetrazolium bromide) assay. For the MTT assay, cells were suspended at 5 × 10^5 cells/ml, and 100 μl aliquots were dispended into 96-well microtiter plates and exposed to drugs as described using DMSO control. At the end of incubations, 10 μl of a stock solution of 5 mg/ml MTT (3-(4,5-dimethylthiazol-2-yl)-2,5-diphenyltetrazolium bromide), was added into each well, and the plates were incubated 4 hours at 37 °C. Formazan crystals were dissolved with 100 μl of 10% SDS/10 mM HCl solution overnight at 37 °C. Since MTT assays are affected by mitochondrial activity, and since OXPHOS is affected by VLX1570 (unpublished observation), we used the acid phosphatase method[49] to determine cell viability in some experiments. After washing twice with PBS, cells were lysed in 100 μl of 0.1 M sodium acetate, 0,1% Triton X-100, p-nitrophenylphosphate (Pierce Biotechnology Inc, Rockford, IL) and incubated for 90 min at 37 °C. At the end of the incubation, 10 μl NaOH was added to each well and A405 was determined.
# OPM-2 = experiment: MTT antiproliferative assay, OPM-2; format: cell-based; settings: Homo sapiens, 72 hours
# Procedure: as §2
# OPM-2-BZ^R = experiment: MTT antiproliferative assay, OPM-2-BZR; format: cell-based; settings: Homo sapiens, OPM-2-BZ^R (bortezomib resistant), 72 hours
# Procedure: as §2
# UCHL5 = target: T2, UCHL5 (Homo sapiens, UniProt Q9Y5K5); experiment: HA-Ub-VS active-site labeling of purified 19S, UCHL5; format: biochemical; settings: purified 19S RP; compared with USP14
# T2 construct: purchased Boston Biochem E-366
# Procedure: (§3) Cell extract proteins were resolved by Tris-Acetate PAGE gels (Invitrogen, Carlsbad, CA) and transferred onto a polyvinylidene difluoride (PVDF) membrane for western blotting. For Ub-VS labeling, we lysed cell pellets from control or treated cells with buffer (50 mM HEPES pH 7.4, 250 mM sucrose, 10 mM MgCl2, 2 mM ATP, 1 mM DTT and 1%NP-40) on ice for 30 min and removed debris by centrifugation. We labeled 25 μg of protein with 1 μM Ub-VS for 30 min at 37 °C. We resolved samples by SDS-PAGE and performed immunoblotting. For HA-Ub-VS labeling, we pretreated purified 19S (5 nM) with DMSO or 2.5, 5, 10, 15 or 25μM 1570 for 10 min at room temperature, which followed with labeling with 1 μM HA-Ub-VS for 30 min at 37 °C and immunoblotting.
# OPM-2 cells = experiment: 3H-VLX1570 retention after wash-out in OPM-2 cells; format: cell-based, human; settings: 1 hour exposure, 17 hours in drug-free medium
# MM cells = experiment: Immunoblotting of polyubiquitinated proteins in MM cells; format: cell-based, human; settings: 0.5 μM, 6 or 18 h
# Procedure: as §3
# myeloma cells = experiment: CFSE cell proliferation assay; format: cell-based, human; settings: 0.25 μM or 0.5 μM; 72 hours
# Procedure: Cell proliferation was measured using the Cell trace^TM CSFE cell proliferation kit. Cells were suspended at 5 × 10^5 cells/ml, incubated with CellTrace^TM reagent for 20 minutes and exposed to the drug at indicated concentrations using DMSO as a control. After 72 h cells were collected, washed twice in 1× PBS, fixed with 3,7% formaldehyde and analysed by flow cytometry.
# proteasome DUB activity = test system: proteasome DUB activity; parameters: method as in PMID 25854145; settings: in cells; read-out: in vivo IC50 for inhibition of proteasome DUB activity and induction of apoptosis; cited from earlier work
# non-proteasomal DUBs = test system: non-proteasomal DUBs; parameters: method as in PMID 25854145; settings: cited from earlier work
# USP14 [2] = target: T1, USP14; experiment: Ub-VS labeling of lysates of exposed OPM-2 cells, USP14; format: cell-based; parameters: endogenous in cells; host or cells: OPM-2 multiple myeloma cells; settings: 0.5 μM, 3 hours
# Procedure: as §3
# USP14 [3] = target: T1, USP14; experiment: Cellular thermal shift assay (CETSA) in OPM-2 cells; format: cell-based; parameters: endogenous in cells; host or cells: OPM-2 multiple myeloma cells; settings: 1 μM, 1 hour
# Procedure: For CETSA, the same amount of cells as one sample was treated with required condition and collected as described. Each sample was suspended in PBS supplemented with protease inhibitors after they were washed in PBS. And then these samples were heated at 51, 53, or 55 °C for 3 min. Immediately after heating, tubes were removed and incubated at room temperature for 3 min, and then snap-frozen in liquid nitrogen. Samples were freeze-thawed twice and centrifuged at 20,000 g for 20 min at +4 °C and supernatants were analysed by Western-blotting.
# T1 sequence (P54578 whole entry): as the sequence (P54578 whole entry) above
smiles,measurement,setting,value
C=CC(=O)N1CC/C(=C\c2ccc(F)c([N+](=O)[O-])c2)C(=O)/C(=C/c2ccc(F)c([N+](=O)[O-])c2)C1 [VLX1570],Kd,"USP14 [1]; NTA chip, protein from Karolinska Institute Protein Science Facility, read-out: USP14(K) KD",18 µM
same,Kd,"USP14 [1]; NTA chip, protein from ProSpec, read-out: USP14(P) KD",8.1 µM
same,Kd,"USP14 [1]; NTA chip, protein from Ubiquigent, read-out: USP14(U) KD",1.5 µM
same,Kd,"USP14 [1]; two different sources of recombinant protein, Ni2+-histidine immobilisation, read-out: dissociation constant (KD) for binding to recombinant USP14",1.5 to 18 µM
same,VLX1570 binding Relative RU × 100 +/− S.D.,26S proteasome; immobilised 26S proteasome,0.21 ± 0.09
same,VLX1570 binding Relative RU × 100 +/− S.D.,26S proteasome; immobilised 26S proteasome pre-incubated with Ub-VS,0.04 ± 0.01
same,IC50,KMS-11,0.043 ± 0.002 µM
same,IC50,OPM-2,0.126 ± 0.003 µM
same,IC50,OPM-2-BZ^R,0.191 ± 0.001 µM
same,inhibition of UCHL5 (Ub-VS labeling),UCHL5,required higher drug concentrations
same,drug associated with the cells after wash-out,OPM-2 cells,Approximately 70%
same,accumulation of polyubiquitinated proteins,MM cells,polyubiquitinated proteins accumulated
same,cell cycle arrest (CFSE dilution),myeloma cells,arrest myeloma cells in the cell cycle
same,IC50,proteasome DUB activity,< 1 µM
same,inhibition of a panel of non-proteasomal DUBs,non-proteasomal DUBs,not inhibiting
same,inhibition of USP14 activity in exposed cells,USP14 [2],Inhibition of USP14 activity could be demonstrated
same,thermostabilization of USP14,USP14 [3],thermostabilized
same,thermostabilization of USP14,USP14 [3]; 53°–55 °C,2.5 fold control

# Source: publication PMC4893612 (Scientific Reports, 2016)
